Laboratory results: ChEMBL document CHEMBL1671854, “ramR mutations involved in efflux-mediated multidrug resistance in Salmonella enterica serovar Typhimurium” (2008)
In brackets after ≈: the same amount, converted by molar mass.

Columns and labels:
Assay type in all cases: functional, Salmonella enterica subsp. enterica serovar Typhimurium
Salmonella typhimurium [1] = assay: Antimicrobial activity against multidrug-resistant Salmonella enterica serovar Typhimurium BN9945 by agar doubling dilution method
Salmonella typhimurium [2] = assay: Antimicrobial activity against multidrug-resistant Salmonella enterica serovar Typhimurium 543SA98 harboring GyrA […] mutant gene by agar doubling dilution method
Salmonella typhimurium [3] = assay: Antimicrobial activity against multidrug-resistant Salmonella enterica serovar Typhimurium 902SA92 harboring plasmid encoded RamR gene, GyrA S83A and D87N, GyrB S464F and ParC S80I mutant genes by agar doubling dilution method
Salmonella typhimurium [4] = assay: Antimicrobial activity against Salmonella enterica serovar Typhimurium BN18/21 by agar doubling dilution method
Salmonella typhimurium [5] = assay: Antimicrobial activity against soxR::kan-deficient Salmonella enterica serovar Typhimurium S/921495 by agar doubling dilution method
Salmonella typhimurium [6] = assay: Antimicrobial activity against Salmonella enterica serovar Typhimurium BN18/21 harboring plasmid encoded RamR gene by agar doubling dilution method
Salmonella typhimurium [7] = assay: Antimicrobial activity against soxS::kan-deficient Salmonella enterica serovar Typhimurium S/921495 by agar doubling dilution method
Salmonella typhimurium [8] = assay: Antimicrobial activity against ramA::kan-deficient Salmonella enterica serovar Typhimurium BN18/21 by agar doubling dilution method
Salmonella typhimurium [9] = assay: Antimicrobial activity against Salmonella enterica serovar Typhimurium BN18/71 harboring GyrA G81C, acrR mutant genes by agar doubling dilution method
Salmonella typhimurium [10] = assay: Antimicrobial activity against ramR-deficient Salmonella enterica serovar Typhimurium S/921495 by agar doubling dilution method
Salmonella typhimurium [11] = assay: Antimicrobial activity against ramA::kan-deficient Salmonella enterica serovar Typhimurium 102SA00 harboring GyrA S83A and D87N, GyrB S464F and ParC S80I mutant genes by agar doubling dilution method
Salmonella typhimurium [12] = assay: Antimicrobial activity against Salmonella enterica serovar Typhimurium S/921495 harboring plasmid encoded RamR gene by agar doubling dilution method
Salmonella typhimurium [13] = assay: Antimicrobial activity against multidrug-resistant Salmonella enterica serovar Typhimurium 102SA00 harboring plasmid encoded RamR gene, GyrA S83A and D87N, GyrB S464F and ParC S80I mutant genes by agar doubling dilution method
Salmonella typhimurium [14] = assay: Antimicrobial activity against multidrug-resistant Salmonella enterica serovar Typhimurium 902SA92 harboring GyrA S83A and D87N, GyrB S464F and ParC S80I mutant genes by agar doubling dilution method
Salmonella typhimurium [15] = assay: Antimicrobial activity against ramR-deficient Salmonella enterica serovar Typhimurium S/921495 harboring plasmid encoded RamR gene by agar doubling dilution method
Salmonella typhimurium [16] = assay: Antimicrobial activity against Salmonella enterica serovar Typhimurium BN18/41 harboring GyrA G81C,acrR mutant genes by agar doubling dilution method
Salmonella typhimurium [17] = assay: Antimicrobial activity against multidrug-resistant Salmonella enterica serovar Typhimurium BN10055 harboring GyrA S83Y mutant gene by agar doubling dilution method
Salmonella typhimurium [18] = assay: Antimicrobial activity against ramA::kan-deficient Salmonella enterica serovar Typhimurium BN9181 by agar doubling dilution method
Salmonella typhimurium [19] = assay: Antimicrobial activity against ramA::kan-deficient Salmonella enterica serovar Typhimurium 543SA98 harboring GyrA S83Y mutant gene by agar doubling dilution method
Salmonella typhimurium [20] = assay: Antimicrobial activity against Salmonella enterica serovar Typhimurium S/921495 by agar doubling dilution method
Salmonella typhimurium [21] = assay: Antimicrobial activity against multidrug-resistant Salmonella enterica serovar Typhimurium 102SA00 harboring GyrA S83A and D87N, GyrB S464F and ParC S80I mutant genes by agar doubling dilution method
Salmonella typhimurium [22] = assay: Antimicrobial activity against Salmonella enterica serovar Typhimurium BN18 harboring plasmid encoded RamR gene by agar doubling dilution method
Salmonella typhimurium [23] = assay: Antimicrobial activity against multidrug-resistant Salmonella enterica serovar Typhimurium BN10055 harboring plasmid encoded RamR gene, GyrA S83Y mutant gene by agar doubling dilution method
Salmonella typhimurium [24] = assay: Antimicrobial activity against ramA::kan-deficient Salmonella enterica serovar Typhimurium S/921495 by agar doubling dilution method
Salmonella typhimurium [25] = assay: Antimicrobial activity against multidrug-resistant Salmonella enterica serovar Typhimurium BN9945 harboring plasmid encoded RamR gene by agar doubling dilution method
Salmonella typhimurium [26] = assay: Antimicrobial activity against ramA::kan-deficient Salmonella enterica serovar Typhimurium BN10055 harboring GyrA S83Y mutant gene by agar doubling dilution method
Salmonella typhimurium [27] = assay: Antimicrobial activity against multidrug-resistant Salmonella enterica serovar Typhimurium 543SA98 harboring plasmid encoded RamR gene, GyrA S83Y mutant gene by agar doubling dilution method
Salmonella typhimurium [28] = assay: Antimicrobial activity against ramA::kan-deficient Salmonella enterica serovar Typhimurium BN9945 by agar doubling dilution method
Salmonella typhimurium [29] = assay: Antimicrobial activity against ramA::kan-deficient Salmonella enterica serovar Typhimurium 902SA92 harboring GyrA S83A and D87N, GyrB S464F and ParC S80I mutant genes by agar doubling dilution method
Salmonella typhimurium [30] = assay: Antimicrobial activity against multidrug-resistant Salmonella enterica serovar Typhimurium BN9181 by agar doubling dilution method
Salmonella typhimurium [31] = assay: Antimicrobial activity against Salmonella enterica serovar Typhimurium BN18 by agar doubling dilution method
Salmonella typhimurium [32] = assay: Antimicrobial activity against marR-deficient Salmonella enterica serovar Typhimurium S/921495 by agar doubling dilution method
Salmonella typhimurium [33] = assay: Antimicrobial activity against marR::kan-deficient Salmonella enterica serovar Typhimurium S/921495 by agar doubling dilution method
Salmonella typhimurium [34] = assay: Antimicrobial activity against ramR::kan-deficient Salmonella enterica serovar Typhimurium S/921495 by agar doubling dilution method
Salmonella typhimurium [35] = assay: Antimicrobial activity against Salmonella enterica serovar Typhimurium BN18/41 harboring plasmid encoded RamR gene, GyrA G81C,acrR mutant genes by agar doubling dilution method
Salmonella typhimurium [36] = assay: Antimicrobial activity against marA::kan-deficient Salmonella enterica serovar Typhimurium S/921495 by agar doubling dilution method
Salmonella typhimurium [37] = assay: Antimicrobial activity against multidrug-resistant Salmonella enterica serovar Typhimurium BN9181 harboring plasmid encoded RamR gene by agar doubling dilution method
Salmonella typhimurium [38] = assay: Antimicrobial activity against ramA::kan-deficient Salmonella enterica serovar Typhimurium BN18/71 harboring plasmid encoded RamR gene, GyrA G81C,acrR mutant genes by agar doubling dilution method
Salmonella typhimurium [39] = assay: Antimicrobial activity against ramA::kan-deficient Salmonella enterica serovar Typhimurium BN18/41 harboring plasmid encoded RamR gene, GyrA G81C,acrR mutant genes by agar doubling dilution method
Salmonella typhimurium [40] = assay: Antimicrobial activity against Salmonella enterica serovar Typhimurium BN18/71 harboring plasmid encoded RamR gene, GyrA G81C,acrR mutant genes by agar doubling dilution method
Salmonella typhimurium [41] = assay: Antimicrobial activity against ramA::kan-deficient Salmonella enterica serovar Typhimurium BN18 by agar doubling dilution method

With `CC1CCc2cc(F)cc3c(=O)c(C(=O)O)cn1c23` (stereo unspecified) [FLUMEQUINE] as the compound, how does the MIC (Salmonella typhimurium [1]) read?
Its MIC is 32 µg/mL (≈ 122 µM).

And the MIC (Salmonella typhimurium [2])?
The MIC was 32 µg/mL (≈ 122 µM).

What about the MIC (Salmonella typhimurium [3]) of the same compound?
The MIC was 512 µg/mL (≈ 1960 µM).

What about the MIC (Salmonella typhimurium [4]) of the same compound?
Its MIC is 8 µg/mL (≈ 30.6 µM).

And the MIC (Salmonella typhimurium [5])?
Its MIC is 0.5 µg/mL (≈ 1.91 µM).

What about the MIC (Salmonella typhimurium [6]) of the same compound?
The MIC was 2 µg/mL (≈ 7.66 µM).

What about the MIC (Salmonella typhimurium [7]) of the same compound?
The MIC was 0.5 µg/mL (≈ 1.91 µM).

And the MIC (Salmonella typhimurium [8])?
Its MIC is 2 µg/mL (≈ 7.66 µM).

And the MIC (Salmonella typhimurium [9])?
Its MIC is 512 µg/mL (≈ 1960 µM).

What about the MIC (Salmonella typhimurium [10]) of the same compound?
Its MIC is 2 µg/mL (≈ 7.66 µM).

And the MIC (Salmonella typhimurium [11])?
The MIC was 512 µg/mL (≈ 1960 µM).

And the MIC (Salmonella typhimurium [12])?
Its MIC is 0.5 µg/mL (≈ 1.91 µM).

What about the MIC (Salmonella typhimurium [13]) of the same compound?
The MIC was 512 µg/mL (≈ 1960 µM).

And the MIC (Salmonella typhimurium [14])?
Its MIC is 2050 µg/mL (≈ 7840 µM).

And the MIC (Salmonella typhimurium [15])?
Its MIC is 0.5 µg/mL (≈ 1.91 µM).

And the MIC (Salmonella typhimurium [16])?
The MIC was 256 µg/mL (≈ 980 µM).

What about the MIC (Salmonella typhimurium [17]) of the same compound?
The MIC was 64 µg/mL (≈ 245 µM).

What about the MIC (Salmonella typhimurium [18]) of the same compound?
Its MIC is 0.5 µg/mL (≈ 1.91 µM).

And the MIC (Salmonella typhimurium [19])?
Its MIC is 8 µg/mL (≈ 30.6 µM).

What about the MIC (Salmonella typhimurium [20]) of the same compound?
Its MIC is 0.5 µg/mL (≈ 1.91 µM).

What about the MIC (Salmonella typhimurium [21]) of the same compound?
Its MIC is 2050 µg/mL (≈ 7840 µM).

And the MIC (Salmonella typhimurium [22])?
The MIC was 0.5 µg/mL (≈ 1.91 µM).

And the MIC (Salmonella typhimurium [23])?
Its MIC is 64 µg/mL (≈ 245 µM).

What about the MIC (Salmonella typhimurium [24]) of the same compound?
The MIC was 0.5 µg/mL (≈ 1.91 µM).

What about the MIC (Salmonella typhimurium [25]) of the same compound?
The MIC was 8 µg/mL (≈ 30.6 µM).

What about the MIC (Salmonella typhimurium [26]) of the same compound?
The MIC was 16 µg/mL (≈ 61.2 µM).

And the MIC (Salmonella typhimurium [27])?
Its MIC is 8 µg/mL (≈ 30.6 µM).

What about the MIC (Salmonella typhimurium [28]) of the same compound?
Its MIC is 8 µg/mL (≈ 30.6 µM).

What about the MIC (Salmonella typhimurium [29]) of the same compound?
The MIC was 512 µg/mL (≈ 1960 µM).

And the MIC (Salmonella typhimurium [30])?
The MIC was 0.5 µg/mL (≈ 1.91 µM).

What about the MIC (Salmonella typhimurium [31]) of the same compound?
Its MIC is 0.5 µg/mL (≈ 1.91 µM).

What about the MIC (Salmonella typhimurium [32]) of the same compound?
The MIC was 0.5 µg/mL (≈ 1.91 µM).

And the MIC (Salmonella typhimurium [33])?
Its MIC is 0.5 µg/mL (≈ 1.91 µM).

And the MIC (Salmonella typhimurium [34])?
Its MIC is 2 µg/mL (≈ 7.66 µM).

And the MIC (Salmonella typhimurium [35])?
The MIC was 64 µg/mL (≈ 245 µM).

What about the MIC (Salmonella typhimurium [36]) of the same compound?
Its MIC is 0.5 µg/mL (≈ 1.91 µM).

And the MIC (Salmonella typhimurium [37])?
Its MIC is 0.5 µg/mL (≈ 1.91 µM).

And the MIC (Salmonella typhimurium [38])?
The MIC was 256 µg/mL (≈ 980 µM).

What about the MIC (Salmonella typhimurium [39]) of the same compound?
Its MIC is 64 µg/mL (≈ 245 µM).

What about the MIC (Salmonella typhimurium [40]) of the same compound?
Its MIC is 256 µg/mL (≈ 980 µM).

What about the MIC (Salmonella typhimurium [41]) of the same compound?
The MIC was 0.5 µg/mL (≈ 1.91 µM).
